Columns and labels:
HUVEC = assay: Anti-angiogenesis activity in HUVEC assessed as inhibition of VEGF-induced tube formation incubated for 6 hrs by capillary tube formation assay; format: functional, cell-based; settings: Homo sapiens
[1] = Cytotoxicity against mouse Hepa1c1c7 cells assessed as reduction in cell viability after 24 hrs by MTT assay; format: cell-based; settings: hepa1c1c7, 24 h
[2] = molecular target: NAD(P)H dehydrogenase [quinone] 1 (Mus musculus) (UniProt Q64669); assay: Activation of quinone reductase in mouse Hepa1c1c7 cells at 20 uM incubated for 24 hrs by MTT based assay relative to control; format: cell-based; settings: filed as activator
NAD(P)H dehydrogenase [quinone] 1 (Mus musculus), sequence (Q64669 whole entry): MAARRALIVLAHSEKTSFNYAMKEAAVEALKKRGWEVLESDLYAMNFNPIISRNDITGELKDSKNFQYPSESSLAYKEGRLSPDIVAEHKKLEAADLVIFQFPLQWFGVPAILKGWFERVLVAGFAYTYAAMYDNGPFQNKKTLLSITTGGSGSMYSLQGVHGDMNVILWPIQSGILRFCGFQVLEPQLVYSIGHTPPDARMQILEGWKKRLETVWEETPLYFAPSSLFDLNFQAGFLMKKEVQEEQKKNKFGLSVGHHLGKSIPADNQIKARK

| fold change (FC) [2] | SMILES | IC50 (HUVEC) [µM] | Activity [1] |
| --- | --- | --- | --- |
|  | CCN(CC)CCNC(=O)c1c(C)[nH]c(/C=C2\C(=O)Nc3ccc(F)cc32)c1C [SUNITINIB] | 1.5 |  |
| 2.07 | CCC[C@]1(O)C[C@H](O)[C@@H](C)[C@H]([C@H](C)[C@@H]2C/C=C/C=C/[C@H](O)C(=O)/C(C)=C/C=C/C(C)=C/[C@@H](O)/C(C)=C/CC(=O)O2)O1 | 20 | Non-Toxic |
| 2.08 | C/C=C\[C@@H](O)CC[C@@H](C)[C@@H](O)[C@H](C)[C@]1(C)C/C=C/C=C/[C@H](O)C(=O)/C(C)=C/C=C/C(C)=C/[C@@H](O)/C(C)=C/CC(=O)O1 | 13 | Non-Toxic |

Reference: ChEMBL document CHEMBL4665794, “Formicolides A and B, Antioxidative and Antiangiogenic 20-Membered Macrolides from a Wood Ant Gut Bacterium” (J Nat Prod, 2020)
